As a reminder, the IC50 is the concentration that gives 50% inhibition. A low value points to higher potency.

Where only a bound is given, the exact number is not on record here.

The test has as its target human MER (528-end) (Homo sapiens (Human), UniProt Q12866). As to the kind of experiment: HTRF Kinase Activity Biochemical Assay (KinEASE-TK). The following applies: 10 uM ATP. An outline of the steps:
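Recombinant human MER (528-end) phosphorylated biotin-TK peptide substrate, 1 h at room temperature. Reaction stopped with detection buffer containing 0.375 nM Eu3+-cryptate anti-TK antibody and 0.062 uM streptavidin-XL665, 1 h further. Activity taken as HTRF ratio 665/620 nm ×10,000, 340 nm excitation.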

Sequence of human MER (528-end) (Q12866 528-999 limits assumed): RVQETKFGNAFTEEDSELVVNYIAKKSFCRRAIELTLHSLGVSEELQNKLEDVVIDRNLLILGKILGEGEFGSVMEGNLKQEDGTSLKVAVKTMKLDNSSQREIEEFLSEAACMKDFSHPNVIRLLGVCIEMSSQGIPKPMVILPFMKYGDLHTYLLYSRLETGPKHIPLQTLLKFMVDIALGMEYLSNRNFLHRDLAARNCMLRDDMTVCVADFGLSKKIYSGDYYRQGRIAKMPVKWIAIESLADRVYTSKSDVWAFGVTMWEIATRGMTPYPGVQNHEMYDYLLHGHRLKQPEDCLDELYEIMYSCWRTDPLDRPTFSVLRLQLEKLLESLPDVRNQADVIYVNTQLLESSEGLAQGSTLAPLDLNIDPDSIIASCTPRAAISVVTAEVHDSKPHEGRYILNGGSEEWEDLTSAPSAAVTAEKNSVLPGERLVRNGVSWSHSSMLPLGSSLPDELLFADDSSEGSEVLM

For `Cn1cc(-c2cnc(N)c(C(=O)N[C@@H]3CCN(C(=O)Oc4cccc(-c5ccc(CN6CCC(C(=O)O)C6)cc5)c4)C3)c2)cn1` (stereo partly drawn) [Example 329, 1-((3′-(((R)-3-(2-amino-5-(1-methyl-1H-pyrazol-4-yl)nicotinamido)pyrrolidine-1-carbonyl)oxy)-[1,1′-biphenyl]-4-yl)methyl)pyrrolidine-3-carboxylic acid], the IC50 is more than 1000 nM.

Consider `Cn1cc(-c2cnc(N)c(C(=O)N[C@@H]3CCN(C(=O)Oc4cccc(-c5cccc(CN6CC[C@H](N)C6)c5)c4)C3)c2)cn1` [Example 337, 3′-(((S)-3-aminopyrrolidin-1-yl)methyl)-[1,1′-biphenyl]-3-yl (R)-3-(2-amino-5-(1-methyl-1H-pyrazol-4-yl)nicotinamido)pyrrolidine-1-carboxylate], for which the IC50 is more than 1000 nM.

On to `Cn1cc(-c2cnc(N)c(C(=O)N[C@@H]3CCN(C(=O)c4ccc(Br)cc4)C3)c2)cn1` [Example 342, (R)-2-amino-N-(1-(4-bromobenzoyl)pyrrolidin-3-yl)-5-(1-methyl-1H-pyrazol-4-yl)nicotinamide], for which the IC50 was more than 1000 nM.

In turn, `Cn1cc(-c2cnc(N)c(C(=O)N[C@@H]3CCN(C(=O)c4ccc(-c5ccccc5)cc4)C3)c2)cn1` [Example 343, (R)—N-(1-([1,1′-biphenyl]-4-carbonyl)pyrrolidin-3-yl)-2-amino-5-(1-methyl-1H-pyrazol-4-yl)nicotinamide] yielded an IC50 of 10 to 100 nM.

`Cn1cc(-c2cnc(N)c(C(=O)N[C@H]3CCN(C(=O)c4cccc(-c5ccccc5)c4)C3)c2)cn1` [Example 345, (S)—N-(1-([1,1′-biphenyl]-3-carbonyl)pyrrolidin-3-yl)-2-amino-5-(1-methyl-1H-pyrazol-4-yl)nicotinamide]: the IC50 is more than 1000 nM.

Turning to `Cn1cc(-c2cnc(N)c(C(=O)N[C@@H]3CCN(C(=O)c4ccc(-c5ccccc5CO)cc4)C3)c2)cn1` [Example 349, (R)-2-amino-N-(1-(2′-(hydroxymethyl)-[1,1′-biphenyl]-4-carbonyl)pyrrolidin-3-yl)-5-(1-methyl-1H-pyrazol-4-yl)nicotinamide], the IC50 fell in the range of 100 to 1000 nM.

Turning to `CC(C)c1ccccc1-c1ccc(C(=O)N2CC[C@@H](NC(=O)c3cc(-c4cnn(C)c4)cnc3N)C2)cc1` [Example 350, (R)-2-amino-N-(1-(2′-isopropyl-[1,1′-biphenyl]-4-carbonyl)pyrrolidin-3-yl)-5-(1-methyl-1H-pyrazol-4-yl)nicotinamide], the IC50 was in the range of 100 to 1000 nM.

In the case of `Cn1cc(-c2cnc(N)c(C(=O)N[C@@H]3CCN(C(=O)c4ccc(-c5ccccc5Oc5ccccc5)cc4)C3)c2)cn1` [Example 351, (R)-2-amino-5-(1-methyl-1H-pyrazol-4-yl)-N-(1-(2^1-phenoxy-[1,1′-biphenyl]-4-carbonyl)pyrrolidin-3-yl)nicotinamide], the IC50 is more than 1000 nM.

`Cn1cc(-c2cnc(N)c(C(=O)N[C@@H]3CCN(C(=O)c4ccc(-c5ccccc5-c5ccccc5)cc4)C3)c2)cn1` [Example 352, (R)—N-(1-([1,1′:2′,1″-terphenyl]-4-carbonyl)pyrrolidin-3-yl)-2-amino-5-(1-methyl-1H-pyrazol-4-yl)nicotinamide]: the IC50 was more than 1000 nM.

On to `CCc1ccccc1-c1ccc(C(=O)N2CC[C@@H](NC(=O)c3cc(-c4cnn(C)c4)cnc3N)C2)cc1` [Example 353, (R)-2-amino-N-(1-(2′-ethyl-[1,1′-biphenyl]-4-carbonyl)pyrrolidin-3-yl)-5-(1-methyl-1H-pyrazol-4-yl)nicotinamide], for which the IC50 lay in the range of 100 to 1000 nM.

Take `COc1ccccc1-c1ccc(C(=O)N2CC[C@@H](NC(=O)c3cc(-c4cnn(C)c4)cnc3N)C2)cc1` [Example 354, (R)-2-amino-N-(1-(2′-methoxy-[1,1′-biphenyl]-4-carbonyl)pyrrolidin-3-yl)-5-(1-methyl-1H-pyrazol-4-yl)nicotinamide]: the IC50 fell in the range of 10 to 100 nM.

Compound `Cn1cc(-c2cnc(N)c(C(=O)N[C@@H]3CCN(C(=O)c4ccc(-c5ccc(F)nc5)cc4)C3)c2)cn1` [Example 357, (R)-2-amino-N-(1-(4-(6-fluoropyridin-3-yl)benzoyl)pyrrolidin-3-yl)-5-(1-methyl-1H-pyrazol-4-yl)nicotinamide] came in with an IC50 of more than 1000 nM.

`Cn1cc(-c2cnc(N)c(C(=O)N[C@@H]3CCN(C(=O)c4ccc(-c5ccsc5)cc4)C3)c2)cn1` [Example 358, (R)-2-amino-5-(1-methyl-1H-pyrazol-4-yl)-N-(1-(4-(thiophen-3-yl)benzoyl)pyrrolidin-3-yl)nicotinamide]: the IC50 was in the range of 100 to 1000 nM.

Consider `Cn1cc(-c2cnc(N)c(C(=O)N[C@@H]3CCN(C(=O)c4ccc(-c5ccccc5Cl)cc4)C3)c2)cn1` [Example 359, (R)-2-amino-N-(1-(2′-chloro-[1,1′-biphenyl]-4-carbonyl)pyrrolidin-3-yl)-5-(1-methyl-1H-pyrazol-4-yl)nicotinamide], for which the IC50 is 10 to 100 nM.

On to `Cn1cc(-c2cnc(N)c(C(=O)N[C@@H]3CCN(C(=O)c4ccc(-c5cccc(Cl)c5)cc4)C3)c2)cn1` [Example 360, (R)-2-amino-N-(1-(3′-chloro-[1,1′-biphenyl]-4-carbonyl)pyrrolidin-3-yl)-5-(1-methyl-1H-pyrazol-4-yl)nicotinamide], for which the IC50 is 10 to 100 nM.

Compound `Cn1cc(-c2cnc(N)c(C(=O)N[C@@H]3CCN(C(=O)c4ccc(-c5ccc(Cl)cc5Cl)cc4)C3)c2)cn1` [Example 361, (R)-2-amino-N-(1-(2′,4′-dichloro-[1,1′-biphenyl]-4-carbonyl)pyrrolidin-3-yl)-5-(1-methyl-1H-pyrazol-4-yl)nicotinamide] gave an IC50 of 10 to 100 nM.

The compound `Cn1cc(-c2cnc(N)c(C(=O)N[C@@H]3CCN(C(=O)c4ccc(-c5ccc(Cl)c(Cl)c5)cc4)C3)c2)cn1` [Example 362, (R)-2-amino-N-(1-(3′,4′-dichloro-[1,1′-biphenyl]-4-carbonyl)pyrrolidin-3-yl)-5-(1-methyl-1H-pyrazol-4-yl)nicotinamide] displayed an IC50 of 100 to 1000 nM.

For `Cn1cc(-c2cnc(N)c(C(=O)N[C@@H]3CCN(C(=O)c4ccc(-c5cc(Cl)cc(Cl)c5)cc4)C3)c2)cn1` [Example 363, (R)-2-amino-N-(1-(3′,5′-dichloro-[1,1′-biphenyl]-4-carbonyl)pyrrolidin-3-yl)-5-(1-methyl-1H-pyrazol-4-yl)nicotinamide], the IC50 is 100 to 1000 nM.

The compound `Cn1cc(-c2cnc(N)c(C(=O)N[C@@H]3CCN(C(=O)c4ccc(-c5cc(Cl)ccc5Cl)cc4)C3)c2)cn1` [Example 367, (R)-2-amino-N-(1-(2′,5′-dichloro-[1,1′-biphenyl]-4-carbonyl)pyrrolidin-3-yl)-5-(1-methyl-1H-pyrazol-4-yl)nicotinamide] showed an IC50 of 10 to 100 nM.

For the compound `Cn1cc(-c2cnc(N)c(C(=O)N[C@@H]3CCN(C(=O)c4ccc(-c5c(Cl)cccc5Cl)cc4)C3)c2)cn1` [Example 368, (R)-2-amino-N-(1-(2′,6′-dichloro-[1,1′-biphenyl]-4-carbonyl)pyrrolidin-3-yl)-5-(1-methyl-1H-pyrazol-4-yl)nicotinamide], the half-inhibitory concentration (IC50) is 100 to 1000 nM.

The compound `Cn1cc(-c2cnc(N)c(C(=O)N[C@@H]3CCN(C(=O)c4ccc(-c5ccc(C(F)(F)F)cc5)cc4)C3)c2)cn1` [Example 371, (R)-2-amino-5-(1-methyl-1H-pyrazol-4-yl)-N-(1-(4′-(trifluoromethyl)-[1,1′-biphenyl]-4-carbonyl)pyrrolidin-3-yl)nicotinamide] had an IC50 of more than 1000 nM.

Take `Cn1cc(-c2cnc(N)c(C(=O)N[C@@H]3CCN(C(=O)c4ccc(-c5ccc(OCc6ccccc6)cc5)cc4)C3)c2)cn1` [Example 372, (R)-2-amino-N-(1-(4′-(benzyloxy)-[1,1′-biphenyl]-4-carbonyl)pyrrolidin-3-yl)-5-(1-methyl-1H-pyrazol-4-yl)nicotinamide]: the IC50 is more than 1000 nM.

The compound `Cn1cc(-c2cnc(N)c(C(=O)N[C@@H]3CCN(C(=O)c4ccc(-c5ccccc5Br)cc4)C3)c2)cn1` [Example 373, (R)-2-amino-N-(1-(2′-bromo-[1,1′-biphenyl]-4-carbonyl)pyrrolidin-3-yl)-5-(1-methyl-1H-pyrazol-4-yl)nicotinamide] returned an IC50 of 10 to 100 nM.

For `Cn1cc(-c2cnc(N)c(C(=O)N[C@@H]3CCN(C(=O)c4ccc(-c5ccccc5O)cc4)C3)c2)cn1` [Example 375, (R)-2-amino-N-(1-(2′-hydroxy-[1,1′-biphenyl]-4-carbonyl)pyrrolidin-3-yl)-5-(1-methyl-1H-pyrazol-4-yl)nicotinamide], the IC50 was 100 to 1000 nM.

On to `Cc1c(N)cccc1-c1ccc(C(=O)N2CC[C@@H](NC(=O)c3cc(-c4cnn(C)c4)cnc3N)C2)cc1` [Example 376, (R)-2-amino-N-(1-(3′-amino-2′-methyl-[1,1′-biphenyl]-4-carbonyl)pyrrolidin-3-yl)-5-(1-methyl-1H-pyrazol-4-yl)nicotinamide], for which the IC50 lay within 100 to 1000 nM.

For `Cn1cc(-c2cnc(N)c(C(=O)N[C@@H]3CCN(C(=O)c4ccc(-c5ccc(Cl)cc5)cc4)C3)c2)cn1` [Example 377, (R)-2-amino-N-(1-(4′-chloro-[1,1′-biphenyl]-4-carbonyl)pyrrolidin-3-yl)-5-(1-methyl-1H-pyrazol-4-yl)nicotinamide], the IC50 was in the range of 100 to 1000 nM.

Compound `Cn1cc(-c2cnc(N)c(C(=O)N[C@@H]3CCN(C(=O)c4ccc(-c5ccc(C(C)(C)C)cc5)cc4)C3)c2)cn1` [Example 378, (R)-2-amino-N-(1-(4′-(tert-butyl)-[1,1′-biphenyl]-4-carbonyl)pyrrolidin-3-yl)-5-(1-methyl-1H-pyrazol-4-yl)nicotinamide] yielded a 50% inhibitory concentration (IC50) of more than 1000 nM.

`Cn1cc(-c2cnc(N)c(C(=O)N[C@@H]3CCN(C(=O)c4ccc(-c5ccc(O)cc5)cc4)C3)c2)cn1` [Example 380, (R)-2-amino-N-(1-(4′-hydroxy-[1,1′-biphenyl]-4-carbonyl)pyrrolidin-3-yl)-5-(1-methyl-1H-pyrazol-4-yl)nicotinamide] gave an IC50 of 100 to 1000 nM.

In turn, `CN1CCN(c2ccc(-c3ccc(C(=O)N4CC[C@@H](NC(=O)c5cc(-c6cnn(C)c6)cnc5N)C4)cc3)cc2)CC1` [Example 383, (R)-2-amino-5-(1-methyl-1H-pyrazol-4-yl)-N-(1-(4′-(4-methylpiperazin-1-yl)-[1,1′-biphenyl]-4-carbonyl)pyrrolidin-3-yl)nicotinamide] came in with an IC50 of more than 1000 nM.

For the origin of these results see patent US12378224B2 (Dong-A Socio Holdings Co., Ltd., priority 2016, dated 2025).
